Consider one compound from patent US20250154179A1, “GOLD (I) GEFITINIB DERIVATIVES AND PREPARATION METHOD AND APPLICATION THEREOF” (TONGJI HOSPITAL, TONGJI MEDICAL COLLEGE, HUAZHONG …, priority 2023, published 2025).

One experiment relates to thioredoxin reductase. The experiment in a line: thioredoxin reductase activity. In kind it is biochemical. On the procedure:
(§1) The present invention further provides an application of a gold (I) Gefitinib derivative, mainly providing the study of the effect of Embodiment 8 (L1Au2 for short). […] L1Au2 is mainly used to treat lung cancer resistant to first- and second-generation EGFR-TKI. In vitro experiments on L1Au2 were conducted against Gefitinib-sensitive and Gefitinib-resistant lung cancer. […] The cell lines used in the experiment are internationally universal lung cancer tumor cell lines: Gefitinib-sensitive lung cancer cell line PC9, and Gefitinib-resistant cell lines PC9GR and H1975. […] See FIG. 3 for the effect diagram of a specific product.

Experiment [1] relates to drug-resistant subcutaneous tumors. The experiment in a line: subcutaneous drug-resistant tumor model in nude mice. Particulars: in vivo and in vitro. On the procedure: as §1
Experiment [2] relates to lung cancer cells. Nature of the experiment: Annexin V-FITC/PI double staining apoptosis assay. It counts as cell-based. On the procedure: as §1
A further experiment deals with EGFR-related pathway. The experiment in a line: EGFR-related pathway activation. It counts as cell-based. The protocol: as §1
Experiment [3] relates to Gefitinib-resistant lung cancer cells. The experiment in a line: mitochondrial damage, oxidative stress and ferroptosis in resistant cells. It counts as cell-based. The protocol:
as §1

Another experiment addresses T1, GPX4 protein (Homo sapiens, UniProt P36969).
T1 construct: endogenous in cells; host or cells: Gefitinib-resistant lung cancer cells (PC9GR / H1975; not specified which)
T1 sequence (P36969 1-197): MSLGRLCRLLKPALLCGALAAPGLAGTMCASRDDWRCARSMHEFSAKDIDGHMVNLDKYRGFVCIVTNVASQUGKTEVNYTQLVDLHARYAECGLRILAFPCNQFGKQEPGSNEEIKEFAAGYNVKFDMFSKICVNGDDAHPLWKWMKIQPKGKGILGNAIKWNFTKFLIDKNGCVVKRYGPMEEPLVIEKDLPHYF
The experiment in a line: GPX4 protein degradation. The following applies: by promoting autophagy and inducing GPX4 ubiquitination. In kind it is cell-based. On the procedure: as §1

The subject of experiment [4] is lung cancer cell lines PC9, PC9GR and H1975. Nature of the experiment: plate cloning (colony formation) experiment. It counts as cell-based. On the procedure: as §1
For experiment [5], the system named is lung cancer cells. Nature of the experiment: Transwell migration experiment. In kind it is cell-based. The protocol: as §1
Experiment [6] relates to lung cancer cell lines PC9, PC9GR and H1975. The experiment in a line: CCK-8 proliferation / cell death experiment. In kind it is cell-based. The protocol: as §1

As to `COc1cc2ncnc(Nc3ccc(F)c(Cl)c3)c2cc1OCCCC#[C][Au][PH]12CN3CN(CN(C3)C1)C2` [Embodiment 8], the thioredoxin reductase activity result in the experiment with thioredoxin reductase is on record as “inhibits thioredoxin reductase activity”. Further, the “performance compared with Gefitinib against drug-resistant tumors” value in experiment [1] is “performs better than Gefitinib”. Further, the “apoptosis of lung cancer cells (FIG. 2D)” value in the experiment on lung cancer cells [2] is given as “significantly promoted the apoptosis”. Also, in the experiment with EGFR-related pathway, the EGFR-related pathway activation entry is “inhibits EGFR-related pathway activation”. For the same compound, in experiment [3], the intracellular mitochondrial damage entry is reported as “induces intracellular mitochondrial damage” and the “intracellular oxidative stress level” value is on record as “severely induces elevation of the intracellular oxidative stress level”. Further, the ferroptosis result in [3] (Gefitinib-resistant lung cancer cells) is recorded as “resulting in ferroptosis”. For the same compound, on GPX4 protein, the GPX4 protein level entry is “degrades GPX4 protein”. For the same compound, the “colony formation ability of lung cancer cells (FIG. 2B)” value in experiment [4] is given as “significantly inhibits the colony formation ability”. Also, in the experiment on lung cancer cells [5], the “migration ability of lung cancer cells (FIG. 2C)” value is recorded as “significantly inhibited the migration ability”. Besides, the “lung cancer cell death over time (FIG. 2A)” value in experiment [6] (CCK8) is listed as “induces lung cancer cell death in a time-dependent manner”. In addition, the inhibition of proliferation entry in experiment [6] (CCK-8 and plate cloning, PC9, PC9GR, H1975) is “obvious effect on inhibiting proliferation”.
